This assay has as its target T1, Dusp6 (Homo sapiens, UniProt Q16828).
T1 sequence (Q16828 1-381): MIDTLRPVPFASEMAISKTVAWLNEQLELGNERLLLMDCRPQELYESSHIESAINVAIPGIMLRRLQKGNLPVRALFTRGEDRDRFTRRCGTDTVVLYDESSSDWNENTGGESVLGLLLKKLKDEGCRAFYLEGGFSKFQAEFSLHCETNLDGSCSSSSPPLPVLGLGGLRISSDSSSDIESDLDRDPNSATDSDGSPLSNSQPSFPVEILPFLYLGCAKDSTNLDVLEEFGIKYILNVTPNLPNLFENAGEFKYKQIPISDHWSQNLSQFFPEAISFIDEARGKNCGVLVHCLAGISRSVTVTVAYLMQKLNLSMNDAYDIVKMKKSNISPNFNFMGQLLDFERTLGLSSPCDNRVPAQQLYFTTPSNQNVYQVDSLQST
As to the kind of experiment: Chemical complementation assay in HeLa cells, pERK restoration, Dusp6-Myc. The note with it: TPA stimulated. Format: cell-based. More on the design: expressed in transfected cells; host or cells: HeLa cells, pcDNA3.1, FuGene 6. As for the experimental part: These experiments were carried out essentially as described26. HeLa cells were obtained from ATCC (Manassas, Va.) and maintained in a humidified atmosphere of 5% CO2 at 37° C., Dulbecco's […] (DMEM) supplemented with 10% fetal bovine serum (FBS, HyClone, Logan, Utah), and 1% penicillin-streptomycin (Life Technologies, Inc., Rockville, Md.). c-Myc-Dusp6 and c-Myc-Dusp1 (also known as CL100) (kindly provided by Dr. Stephen Keyse, University of Dundee) were subcloned into pcDNA3.1 for ectopic expression in mammalian cells50. […] Plates were analyzed by three-channel multiparametric analysis for p-ERK and c-Myc-DUSP intensities in an area defined by nuclear staining using the Compartmental Analysis Bioapplication on an ArrayScan II high-content reader (Cellomics, Pittsburgh, Pa.). Restoration of ERK phosphorylation by BCI in Dusp6 overexpressing cells was quantified by Kolmogorov-Smirnov (KS) statistics as described previously using DUSP-transfected and vehicle treated control wells26. One thousand individual cells were gated for Dusp-Myc expression based on c-Myc immunostaining and analyzed for ERK phosphorylation. […] To quantify restoration of Erk phosphorylation in the Dusp expressing cells after compound treatment, KS values for each condition were normalized to the average KS value from four wells transfected with Dusp1 or Dusp6 and treated with vehicle. […]

For the compound `O=C1/C(=C/c2ccccc2)C(NC2CCCCC2)c2ccccc21` (centres unmarked) [Compound 3, (E)-2-benzylidene-3-(cyclohexylamino)-2,3-dihydro-1H-inden-1-one], the IC50 (15 min compound, read-out: IC50, Dusp6 inhibition (pERK restoration)) was determined as 16 µM.

Consider `O=C1CC(NC2CCCCC2)c2ccccc21` (centres unmarked) [Compound 17, 3-(Cyclohexylamino)-2,3-dihydro-1H-inden-1-one], for which the “block of Dusp6 activity in chemical complementation assay” value is recorded as “did not block”.

These data come from patent US9127016B2, “Small molecule inhibitors of Dusp6 and uses therefor” (University of Pittsburgh—Of the Commonwealth System of …, priority 2009, dated 2015).
